{"source": "ChEMBL document CHEMBL3758090", "about": "“Investigation of α-conotoxin unbinding using umbrella sampling” (Bioorg Med Chem Lett, 2016)", "target": "T1, Soluble acetylcholine receptor (Aplysia californica, UniProt Q8WSF8)", "T1 sequence (Q8WSF8 whole entry)": "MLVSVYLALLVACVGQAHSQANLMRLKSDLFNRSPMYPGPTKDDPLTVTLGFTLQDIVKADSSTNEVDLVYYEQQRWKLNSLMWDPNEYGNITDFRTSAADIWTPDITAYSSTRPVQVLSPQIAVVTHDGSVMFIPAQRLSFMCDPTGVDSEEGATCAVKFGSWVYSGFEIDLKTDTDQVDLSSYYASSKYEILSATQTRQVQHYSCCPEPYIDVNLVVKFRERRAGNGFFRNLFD", "assay": "Displacement [125I]alpha-bungarotoxin from untagged Aplysia californica AChBP expressed in Sf9 cells by competitive binding assay"}
{"compound": "C[C@@H]1NC(=O)[C@@H]2CSSC[C@H](NC(=O)CN)C(=O)N[C@@H](CSSC[C@@H](C(=O)O)NC(=O)[C@H](CCCNC(=N)N)NC(=O)[C@H](Cc3c[nH]c4ccccc34)NC1=O)C(=O)N[C@@H](CO)C(=O)N[C@@H](CC(=O)O)C(=O)N1CCC[C@H]1C(=O)N[C@@H](CCCNC(=N)N)C(=O)N2", "values": [{"measurement": "IC50", "result": 33, "unit": "nM"}]}
